# According to patent US12139508B2, “Steroid derivative regulators, method for preparing the same, and uses thereof” (JIANGSU HANSOH PHARMACEUTICAL GROUP CO., LTD., priority 2018, dated 2024):
# Where two headings read alike, the source gives them in different places.
# Tests used:
# [1] = molecular target: GABA-A receptor; test: 35S-TBPS binding assay (GABAA receptor binding ability test); set-up: species or system Sprague-Dawley rat; details: rat cerebral cortex cell membrane, 5 μM GABA, 2 nM 35S-TBPS; read-out: 35S-TBPS bindng test: IC50 on inhibiting the TBPS binding activity
# Outline: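 Rat (male Sprague-Dawley) cortical membranes in PBS were preincubated 5 min at 25° C with compound (from 1 μM, 3-fold, 8 points, 1% DMSO), then 5 μM GABA 5 min, then 2 nM ^35S-TBPS for 20 h at 4° C. Filter-bound counts gave % inhibition against DMSO and 10 μM P026-2 controls; IC50 by 4-parameter fit.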
# [2] = Pharmacokinetic assay in Balb/c mice (plasma and brain tissue); type: in vivo; details: mouse, po, 5 mg/kg p.o., male Balb/c mice; for AUC(0-t): read-out: Area under curve AUC0-t; for AUC(0-inf): read-out: Area under curve AUC0-∞; for half-life: read-out: Half-life t1/2 (converted); for MRT: read-out: Mean residence time MRT; for Tmax: read-out: Peak time tmax; for Cmax: read-out: Plasma concentration Cmax
# Method: Balb/c mice were used as test animals. The pharmacokinetic behavior in mice (plasma and brain tissue) of the compounds of Examples 2, 3, 5, 6, 9, 13, 59, 60, 61, 63, 71-74, 81, 103, 130, 134, 135, 137, 138, 140, 141, 143, 145 and 146 orally administered at a dose of 5 mg/kg was studied.
# Each group had 24 male Balb/c mice. After an overnight fast, Balb/c mice were administered p.o. with the test compound at an administration dose of 5 mg/kg and an administration volume of 10 mL/kg.
# 0.2 ml of blood was taken from the heart before administration and at 0, 0.5, 1, 2, 4, 6, 8 and 24 hours after administration. The samples were stored in EDTA-K2 tubes, and centrifuged for 6 minutes at 4° C., 6000 rpm to separate the plasma. The plasma samples were stored at −80° C. The mice were sacrificed with CO2, and the whole brain tissue was taken out, weighed, placed in a 2 mL centrifuge tube and stored at −80° C.
# 1) 160 μL of acetonitrile was added to 40 μL of the plasma sample for precipitation, and then the mixture was centrifuged for 5-20 minutes at 3500×g.
# 2) 90 μL of acetonitrile containing the internal standard (100 ng/mL) was added to 30 μL of the plasma and brain homogenate samples for precipitation, and then the mixture was centrifuged for 8 minutes at 13000 rpm.
# 3) 70 μL of the treated supernatant was taken and added to 70 μL of water, and mixed by vortex for 10 minutes. 20 μL of the mixture was taken to analyze the concentration of the test compound by LC/MS/MS. LC/MS/MS analysis instrument: AB Sciex API 4000 Qtrap.
# • Liquid chromatography condition: Shimadzu LC-20AD pump. • Chromatographic column: Agilent ZORBAX™ XDB-C18 (50×2.1 mm, 3.5 μm) (note: Aglient ZORBAX™ is a kind of column used in the reverse HPLC); • Mobile phase: Eluent A was 0.10% formic acid in water, and Eluent B was acetonitrile. • Flow rate: 0.4 mL/min • Elution time: 0-4.0 minutes, the eluent is as follows:
# The main parameters of pharmacokinetics were calculated by WinNonlin 6.1.
# [3] = test system: forced-swimming mice; test: In vivo pharmacodynamic test in the forced swimming model in mice; details: ICR mice; for Mean (immobility, %): dose 10 mpk p.o., 100*floating time/240 s; for Immobility time during the latter four minutes compared with that of the model group: forced swimming
# Method: The antidepressant effect of the compound was evaluated by the forced swimming model in mice.
# Male ICR mice (25-35 g) were adapted in the test environment for 3 days before the forced swimming test.
# According to the test design, the mice were randomly grouped on the day before the test according to body weight, with 12 mice in each group. Before the test, the compounds of each example were administered intragastrically according to the Tmax thereof in the brain in mice pharmacokinetic test as follows: • 1) Model group (0.5% CMC-Na-1% Tween 80 solution, p.o., 10 mL/kg); • 2) Compounds of Example 2, Example 3, Example 5, Example 6, Example 9, Examples 59-63, Examples 71-73, Example 103, Example 135, Example 137, Example 145 and Example 146 (10 mg/kg, p.o., 10 mL/kg); Example 13 and Example 74 (5 mg/kg, p.o., 5 mL/kg).
# When being administered, the compounds of each example were suspended in 0.5% CMC-Na+1% Tween 80 solution to the desired concentration.
# 0.5-1 hour after administration, ICR mice were placed in a forced swimming device (transparent glass drum (water depth 18 cm, water temperature 25-26° C.), one mouse per tank) and forced to swim for 6 minutes. The forced swimming device recorded the floating time of the ICR mice during the entire 6 minutes, and the data of the latter four minutes were used for data analysis. The mice were taken out immediately after the swimming test, wiped dry and put back in their original cages.
# Note: The criterion for determining the immobility time is that the mouse stops struggling in water and floats, and there are only slight limb movements to keep the head floating on the water.
# 3.4 Data Analysis Floating time percentage=100*floating time/240 s.
Compound,IC50 [1] [nM],AUC(0-t) ([2]; brain tissue) [ng·h/mL],AUC(0-inf) ([2]; brain tissue) [ng·h/mL],half-life ([2]; brain tissue) [h],MRT ([2]; brain tissue) [h],Tmax ([2]; brain tissue) [h],Cmax ([2]; brain tissue) [ng/mL],AUC(0-t) ([2]; plasma) [ng·h/mL],AUC(0-inf) ([2]; plasma) [ng·h/mL],half-life ([2]; plasma) [h],MRT ([2]; plasma) [h],Tmax ([2]; plasma) [h],Cmax ([2]; plasma) [ng/mL],"Mean (immobility, %) [3] [%]",Immobility time during the latter four minutes compared with that of the model group [3]
"C[C@@H]1C[C@H](C(=O)Cn2cc(C#N)c(Cl)n2)[C@@]2(C)CC[C@H]3[C@@H](CC[C@@H]4C[C@](C)(O)CC[C@@H]43)[C@H]12 [Example 134, 3-Chloro-1-(2-((3R,5R,8R,9R,10S,13S,14S,15R,17S)-3-hydroxy-3,13,15-trimethylhexadecahydro-1H-cyclopenta[a]phenanthren-17-yl)-2-oxoethyl)-1H-pyrazole-4-carbonitrile]",6.7,3210,3500,1.59,3.22,1,892,4630,5130,1.78,3.31,0.5,1750,–,–
"C[C@@]1(O)CC[C@H]2[C@H](CC[C@@H]3[C@@H]2CC[C@@]2(C)[C@H]3[C@@H]3C[C@@H]3[C@@H]2C(=O)Cn2ncnn2)C1 [Example 9, 1-((2R,4aS,4bR,6aS,7S,7aS,8aR,8bR,8cR,10aR)-2-Hydroxy-2,6a-dimethyloctadecahydrocyclopropa[4,5]cyclopenta[1,2-a]phenanthren-7-yl)-2-(2H-tetrazol-2-yl)ethan-1-one]",21.3,677,680,0.5,0.9,0.5,605,775,778,0.9,1.1,0.5,664,–,–
"C[C@@]1(O)CC[C@H]2[C@H](CC[C@@H]3[C@@H]2CC[C@@]2(C)[C@H]3[C@H](C3CC3)C[C@@H]2C(=O)Cn2nccn2)C1 [Example 73, 1-((3R,5R,8R,9R,10S,13S,14S,15S,17S)-15-Cyclopropyl-3-hydroxy-3,13-dimethylhexadecahydro-1H-cyclopenta[a]phenanthren-17-yl)-2-(2H-1,2,3-triazol-2-yl)ethan-1-one]",–,1100,1120,1.31,1.91,0.5,636,2430,2480,1.4,2.06,0.5,1300,29.57,significantly different
"C[C@@H]1C[C@H](C(=O)Cn2nc(C#N)cc2C#N)[C@@]2(C)CC[C@H]3[C@@H](CC[C@@H]4C[C@](C)(O)CC[C@@H]43)[C@H]12 [Example 135, 1-(2-((3R,5R,8R,9R,10S,13S,14S,15R,17S)-3-Hydroxy-3,13,15-trimethylhexadecahydro-1H-cyclopenta[a]phenanthren-17-yl)-2-oxoethyl)-1H-pyrazole-3,5-dicarbonitrile]",4.3,3740,4450,2.82,4.71,2,724,4100,4110,2.06,4.38,2,640,–,–
"CC[C@@H]1C[C@H](C(=O)Cn2ccnn2)[C@@]2(C)CC[C@H]3[C@@H](CC[C@@H]4C[C@](C)(O)CC[C@@H]43)[C@H]12 [Example 140, 1-((3R,5R,8R,9R,10S,13S,14S,15R,17S)-15-Ethyl-3-hydroxy-3,13-dimethylhexadecahydro-1H-cyclopenta[a]phenanthren-17-yl)-2-(1H-1,2,3-triazol-1-yl)ethan-1-one]",33.1,4330,4540,1.21,2.1,0.5,1740,5980,6110,1.19,2.22,0.5,2480,–,–
"C[C@@]1(O)CC[C@H]2[C@H](CC[C@@H]3[C@@H]2CC[C@@]2(C)[C@H]3[C@H](C3CC3)C[C@@H]2C(=O)Cn2ccc(C#N)n2)C1 [Example 72, 1-(2-((3R,5R,8R,9R,10S,13S,14S,15S,17S)-15-Cyclopropyl-3-hydroxy-3,13-dimethylhexadecahydro-1H-cyclopenta[a]phenanthren-17-yl)-2-oxoethyl)-1H-pyrazole-3-carbonitrile]",–,2050,2240,2.12,3.17,0.5,724,2970,2970,2.79,3.71,0.5,1150,35.74,significantly different
"C[C@@]1(O)CC[C@H]2[C@H](CC[C@@H]3[C@@H]2CC[C@@]2(C)[C@H]3[C@H](C3CC3)C[C@@H]2C(=O)Cn2nc(C#N)cc2C#N)C1 [Example 143, 1-(2-((3R,5R,8R,9R,10S,13S,14S,15S,17S)-15-Cyclopropyl-3-hydroxy-3,13-dimethylhexadecahydro-1H-cyclopenta[a]phenanthren-17-yl)-2-oxoethyl)-1H-pyrazole-3,5-dicarbonitrile]",28.5,8820,9220,3.95,7.81,2,812,6290,6490,1.7,3.08,0.5,1650,–,–
